The values below come from PMC5137160, “Optical imaging of MMP-12 active form in inflammation and aneurysm” (Scientific Reports, 2016).

In assay [1] the target is hMMP-12. Description: MMP inhibition assay (Ki). Format: biochemical, human. How it is done:
(§1) Human MMP-8, -9, -12 and -13 were produced in the laboratory. Other MMPs were purchased from R&D Systems (Minneapolis, MN). MMP inhibition assays were carried out as previously described. Pro-MMPs were pre-activated by p-aminophenylmercuric acetate following the method described by R&D Systems. Titration experiments were carried out to determine active enzyme concentration for each MMP prior to the assay. For each probe, the percentage of inhibition was determined from five different concentrations in triplicates, chosen to reach a range of 20–80% inhibition. Ki values were determined using the method proposed by Horovitz and Leviski[45].

The target in assay [2] is T1, ADAMTS-5 (Homo sapiens, UniProt Q9UNA0).
T1 sequence (Q9UNA0 262-930): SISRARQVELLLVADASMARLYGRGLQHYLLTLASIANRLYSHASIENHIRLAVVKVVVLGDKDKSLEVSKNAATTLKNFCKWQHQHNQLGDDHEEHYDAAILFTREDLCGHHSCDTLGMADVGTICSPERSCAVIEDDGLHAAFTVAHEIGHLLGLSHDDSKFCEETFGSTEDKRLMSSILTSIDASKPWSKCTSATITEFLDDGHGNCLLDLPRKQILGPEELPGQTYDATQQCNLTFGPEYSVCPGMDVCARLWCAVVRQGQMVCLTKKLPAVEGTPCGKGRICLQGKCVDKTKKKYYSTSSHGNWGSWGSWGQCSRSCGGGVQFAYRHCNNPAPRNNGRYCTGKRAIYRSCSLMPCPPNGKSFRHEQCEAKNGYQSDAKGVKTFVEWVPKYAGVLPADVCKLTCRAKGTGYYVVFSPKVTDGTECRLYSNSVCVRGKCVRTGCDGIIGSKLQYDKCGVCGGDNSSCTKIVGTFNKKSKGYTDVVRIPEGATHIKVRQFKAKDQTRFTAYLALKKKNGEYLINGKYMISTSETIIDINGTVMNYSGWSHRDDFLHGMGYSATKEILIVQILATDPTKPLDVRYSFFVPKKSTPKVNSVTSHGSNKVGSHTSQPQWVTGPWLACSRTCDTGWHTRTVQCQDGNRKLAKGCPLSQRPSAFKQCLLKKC
Description: Metalloprotease inhibition assay (Ki). Format: biochemical.

Assay [3] addresses T2, hMMP-9 (Homo sapiens, UniProt P14780).
T2 construct: made in house
Description: MMP inhibition assay (Ki). Format: biochemical. As to the method:
as §1

For assay [4], the target named is T3, hMMP-1 (Homo sapiens, UniProt P03956).
T3 construct: purchased R&D Systems (Minneapolis, MN)
T3 sequence (P03956 100-469): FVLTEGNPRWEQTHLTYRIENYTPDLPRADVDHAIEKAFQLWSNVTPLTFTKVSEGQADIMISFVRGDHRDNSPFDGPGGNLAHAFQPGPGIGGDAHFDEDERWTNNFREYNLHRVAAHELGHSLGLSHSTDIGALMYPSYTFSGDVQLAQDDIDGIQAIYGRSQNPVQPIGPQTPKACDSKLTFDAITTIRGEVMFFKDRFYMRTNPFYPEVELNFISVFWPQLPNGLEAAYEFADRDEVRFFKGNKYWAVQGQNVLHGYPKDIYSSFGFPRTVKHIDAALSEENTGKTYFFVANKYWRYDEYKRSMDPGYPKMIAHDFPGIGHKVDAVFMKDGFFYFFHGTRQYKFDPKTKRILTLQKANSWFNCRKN
Description: MMP inhibition assay (Ki). Type of assay: biochemical. As to the method: as §1

For assay [5], the target named is T4, hMMP-7 (Homo sapiens, UniProt P09237).
T4 construct: purchased R&D Systems (Minneapolis, MN)
T4 sequence (P09237 95-267): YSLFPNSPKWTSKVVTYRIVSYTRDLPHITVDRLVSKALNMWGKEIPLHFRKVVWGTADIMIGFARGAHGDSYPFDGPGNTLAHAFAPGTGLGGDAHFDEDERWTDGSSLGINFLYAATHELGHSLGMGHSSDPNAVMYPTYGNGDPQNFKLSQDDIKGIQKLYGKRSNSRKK
Description: MMP inhibition assay (Ki). Format: biochemical. How it is done:
as §1

For assay [6], the target named is T5, hMMP-14 (Homo sapiens, UniProt P50281).
T5 construct: purchased R&D Systems (Minneapolis, MN)
Description: MMP inhibition assay (Ki). Type of assay: biochemical. As to the method: as §1

Assay [7] has as its target T6, hMMP-8 (Homo sapiens, UniProt P22894).
T6 construct: made in house
Description: MMP inhibition assay (Ki). Type of assay: biochemical. How it is done: as §1

The target of assay [8] is T7, hMMP-2 (Homo sapiens, UniProt P08253).
T7 construct: purchased R&D Systems (Minneapolis, MN)
T7 sequence (P08253 110-660): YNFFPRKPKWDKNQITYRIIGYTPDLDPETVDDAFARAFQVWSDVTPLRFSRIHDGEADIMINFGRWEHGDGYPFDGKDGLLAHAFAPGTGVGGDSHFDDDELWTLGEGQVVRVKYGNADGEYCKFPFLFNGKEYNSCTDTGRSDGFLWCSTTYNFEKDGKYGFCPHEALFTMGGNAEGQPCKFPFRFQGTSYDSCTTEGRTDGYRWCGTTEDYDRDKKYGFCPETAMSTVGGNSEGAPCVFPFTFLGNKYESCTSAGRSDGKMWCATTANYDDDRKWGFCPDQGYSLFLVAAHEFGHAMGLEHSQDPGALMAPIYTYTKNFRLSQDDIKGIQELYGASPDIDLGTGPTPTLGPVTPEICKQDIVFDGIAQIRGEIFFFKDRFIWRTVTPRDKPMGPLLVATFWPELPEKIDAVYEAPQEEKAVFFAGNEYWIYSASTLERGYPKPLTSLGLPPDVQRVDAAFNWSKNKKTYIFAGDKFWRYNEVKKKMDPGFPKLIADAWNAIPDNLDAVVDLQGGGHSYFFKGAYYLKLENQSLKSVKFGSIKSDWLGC
Description: MMP inhibition assay (Ki). Type of assay: biochemical. As to the method:
as §1

The target of assay [9] is T8, hMMP-3 (Homo sapiens, UniProt P08254).
T8 construct: purchased R&D Systems (Minneapolis, MN)
T8 sequence (P08254 100-477): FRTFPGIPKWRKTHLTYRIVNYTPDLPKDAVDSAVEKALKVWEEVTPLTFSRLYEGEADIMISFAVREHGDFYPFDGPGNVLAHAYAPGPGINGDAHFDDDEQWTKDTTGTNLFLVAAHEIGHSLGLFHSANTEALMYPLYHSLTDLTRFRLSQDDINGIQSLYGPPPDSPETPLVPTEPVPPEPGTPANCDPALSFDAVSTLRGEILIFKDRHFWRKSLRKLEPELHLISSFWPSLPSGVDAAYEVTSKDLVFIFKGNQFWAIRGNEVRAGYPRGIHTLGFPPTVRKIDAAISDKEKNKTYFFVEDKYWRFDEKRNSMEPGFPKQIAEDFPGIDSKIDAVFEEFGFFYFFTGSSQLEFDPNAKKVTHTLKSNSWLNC
Description: MMP inhibition assay (Ki). Type of assay: biochemical. As to the method: as §1

For assay [10], the target named is T9, hMMP-13 (Homo sapiens, UniProt P45452).
T9 construct: made in house
Description: MMP inhibition assay (Ki). Format: biochemical. As to the method:
as §1

Assay [11] has as its target TACE (Homo sapiens, UniProt P78536). Description: Metalloprotease inhibition assay (Ki). Format: biochemical.
Assay [12] addresses T10, MMP-12 (Mus musculus, UniProt P34960).
T10 construct: from tissue; host or cells: CaCl2-induced aneurysmal left carotid artery of apoE-deficient mice (in vivo imaging and cryostat sections)
Description: Co-immunostaining of carotid artery sections with probe, fluorescence microscopy. Further details: species or system mice. How it is done:
Hematoxylin and eosin (H&E) staining and immunostaining of tissues were performed according to standard protocols on 5-μm-thick cryostat sections. For immunostaining, primary antibodies included anti-MMP-12 (sc-30072, Santa Cruz Biotechnology, Dallas, TX), anti-CD68 (AbD serotec, Raleigh, NC), anti-F4/80 (Cedarlane, Burlington, NC) and anti-CD31 (BD Pharmingen, San Jose, CA). Isotype-matched antibodies were used as controls. For co-immunostaining, tissue sections were fixed with acetone, and stained with the antibody followed by probe 2. Nuclei were stained with DAPI using ProLong® Gold Antifade Mountant with DAPI (Molecular Probes, Eugene, OR). The slides were photographed using a Spot RT3 camera (Diagnostic Instruments, Sterling Heights, MI) and a Zeiss Axiophot fluorescence microscope (Carl Zeiss Microscopy GmbH, Jena, Germany).

For assay [13], the target named is T11, hMMP-10 (Homo sapiens, UniProt P09238).
T11 construct: purchased R&D Systems (Minneapolis, MN)
T11 sequence (P09238 99-476): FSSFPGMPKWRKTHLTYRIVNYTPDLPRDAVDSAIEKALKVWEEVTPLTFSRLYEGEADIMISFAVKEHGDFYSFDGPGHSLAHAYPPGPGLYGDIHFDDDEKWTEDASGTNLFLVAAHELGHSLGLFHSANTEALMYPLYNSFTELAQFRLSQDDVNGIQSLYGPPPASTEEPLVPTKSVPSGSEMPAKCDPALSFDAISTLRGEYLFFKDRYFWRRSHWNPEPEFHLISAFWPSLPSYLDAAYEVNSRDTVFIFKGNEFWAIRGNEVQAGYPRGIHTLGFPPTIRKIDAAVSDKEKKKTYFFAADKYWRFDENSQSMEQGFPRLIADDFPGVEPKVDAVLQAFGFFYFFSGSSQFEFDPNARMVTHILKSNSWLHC
Description: MMP inhibition assay (Ki). Type of assay: biochemical. How it is done: as §1

The test system of assay [14] is MMP-12. Further details: method as in PMID 21212406. To be noted: high fat-fed apoE-/- mice ref 3; cited from earlier work.

T6 sequence (P22894 101-467): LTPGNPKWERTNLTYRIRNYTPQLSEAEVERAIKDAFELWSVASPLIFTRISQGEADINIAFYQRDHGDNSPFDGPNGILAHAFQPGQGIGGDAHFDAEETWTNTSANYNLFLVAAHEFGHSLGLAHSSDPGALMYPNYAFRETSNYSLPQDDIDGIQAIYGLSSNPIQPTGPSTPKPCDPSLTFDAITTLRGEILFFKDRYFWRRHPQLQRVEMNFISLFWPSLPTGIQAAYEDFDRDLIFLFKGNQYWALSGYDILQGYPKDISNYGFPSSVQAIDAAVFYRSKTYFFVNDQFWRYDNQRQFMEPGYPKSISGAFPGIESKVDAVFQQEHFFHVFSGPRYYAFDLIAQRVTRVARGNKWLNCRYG
Chain of TACE (P78536 215-824): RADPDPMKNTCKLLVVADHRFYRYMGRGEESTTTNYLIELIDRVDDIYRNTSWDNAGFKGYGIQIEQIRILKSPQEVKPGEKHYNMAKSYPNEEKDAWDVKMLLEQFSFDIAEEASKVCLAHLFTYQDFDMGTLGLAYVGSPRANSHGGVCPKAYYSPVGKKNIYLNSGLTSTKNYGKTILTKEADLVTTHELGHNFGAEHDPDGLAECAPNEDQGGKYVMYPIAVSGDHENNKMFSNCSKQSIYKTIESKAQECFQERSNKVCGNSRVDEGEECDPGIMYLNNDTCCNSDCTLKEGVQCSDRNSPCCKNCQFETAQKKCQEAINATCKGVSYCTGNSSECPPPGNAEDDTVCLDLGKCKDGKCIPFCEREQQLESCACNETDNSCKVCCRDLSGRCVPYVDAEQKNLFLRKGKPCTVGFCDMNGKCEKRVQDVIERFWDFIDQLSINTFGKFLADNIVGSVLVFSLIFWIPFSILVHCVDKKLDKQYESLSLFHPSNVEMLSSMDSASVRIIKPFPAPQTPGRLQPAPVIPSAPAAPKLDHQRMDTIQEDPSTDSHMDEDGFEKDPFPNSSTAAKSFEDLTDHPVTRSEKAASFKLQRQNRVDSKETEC
T2 sequence (P14780 94-707): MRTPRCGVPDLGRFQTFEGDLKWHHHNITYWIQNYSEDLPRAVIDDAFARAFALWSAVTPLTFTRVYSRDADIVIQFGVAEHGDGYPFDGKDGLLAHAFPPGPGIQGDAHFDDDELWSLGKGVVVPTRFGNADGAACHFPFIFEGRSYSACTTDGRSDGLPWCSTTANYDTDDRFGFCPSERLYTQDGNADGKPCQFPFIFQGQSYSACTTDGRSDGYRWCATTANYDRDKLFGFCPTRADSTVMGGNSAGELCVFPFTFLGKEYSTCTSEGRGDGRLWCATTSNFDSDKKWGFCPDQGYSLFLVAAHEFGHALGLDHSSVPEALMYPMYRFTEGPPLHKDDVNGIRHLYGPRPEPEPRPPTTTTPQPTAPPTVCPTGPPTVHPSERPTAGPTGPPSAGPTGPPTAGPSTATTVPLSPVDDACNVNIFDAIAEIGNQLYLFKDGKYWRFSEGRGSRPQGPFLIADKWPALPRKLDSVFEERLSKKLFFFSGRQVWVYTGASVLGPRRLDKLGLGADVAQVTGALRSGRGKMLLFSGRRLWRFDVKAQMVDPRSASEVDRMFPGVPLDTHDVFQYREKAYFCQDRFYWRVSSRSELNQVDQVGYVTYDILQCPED
T10 sequence (P34960 110-473): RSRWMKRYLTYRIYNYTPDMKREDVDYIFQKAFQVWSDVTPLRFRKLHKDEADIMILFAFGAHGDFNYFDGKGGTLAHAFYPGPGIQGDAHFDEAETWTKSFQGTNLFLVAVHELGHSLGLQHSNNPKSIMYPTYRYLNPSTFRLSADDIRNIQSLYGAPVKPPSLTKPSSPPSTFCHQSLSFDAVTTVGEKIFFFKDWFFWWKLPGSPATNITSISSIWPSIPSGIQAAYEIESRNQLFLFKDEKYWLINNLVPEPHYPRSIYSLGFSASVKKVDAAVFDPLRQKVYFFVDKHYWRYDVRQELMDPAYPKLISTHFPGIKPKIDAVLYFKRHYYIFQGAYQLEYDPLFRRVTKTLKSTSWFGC

On to `CC[N+]1=C(/C=C/C=C2/N(CCCCCC(=O)NCCCOCCOCCOCCCNC(=O)[C@H](CCC(=O)O)NC(=O)[C@H](CCC(=O)O)NC(=O)[C@H](Cc3cc(-c4ccc(-c5cccc(Cl)c5)cc4)no3)CP(=O)(O)c3ccc(Br)cc3)c3ccc(S(=O)(=O)[O-])cc3C2(C)C)C(C)(C)c2cc(S(=O)(=O)O)ccc21` [probe 2], for which the inhibitory constant (Ki) (usually the dissociation constant of the complex between target and ligand, obtained from inhibition or displacement) in assay [1] was 6.1 ± 0.1 nM; in assay [2], more than 10000 nM; in assay [3] it was 8760 ± 50 nM; in assay [4], 7212 ± 66 nM; in [5] it was 1850 ± 71 nM; in assay [6], 802 ± 58 nM. The inhibition constant Ki is 1440 ± 35 nM in assay [7]; 1070 ± 18 nM in [8]; 188 ± 22 nM in assay [9]; 136 ± 15 nM in assay [10]; more than 10000 nM in assay [11]. The “difference in potency towards MMP-12, factor relative to probe 1” value in assay [1] (relative to probe 1) was found to be 7. The “loss of potency (drop in affinity) toward MMP-9 compared with RXP470.1” value in assay [3] (factor relative to RXP470.1) is listed as 50. For the same molecule, the “probe co-localization with F4/80 positive cells” value in assay [12] (aneurysmal carotid artery sections) is recorded as “co-localized”. In addition, in [12] (aneurysmal left carotid artery sections), the “probe signal co-localization with MMP-12” value is listed as “partially co-localized”.
`CC[N+]1=C(/C=C/C=C/C=C2/N(CCCCCC(=O)NCCCOCCOCCOCCCNC(=O)[C@H](CCC(=O)O)NC(=O)[C@H](CCC(=O)O)NC(=O)[C@H](Cc3cc(-c4ccc(-c5cccc(Cl)c5)cc4)no3)CP(=O)(O)c3ccc(Br)cc3)c3ccc4c(S(=O)(=O)[O-])cc(S(=O)(=O)O)cc4c3C2(C)C)C(C)(C)c2c1ccc1c(S(=O)(=O)O)cc(S(=O)(=O)O)cc21` [probe 1]: the Ki is 0.9 nM in assay [1]; 1490 ± 129 nM in assay [2]; 4167 ± 41 nM in [3]; more than 10000 nM in assay [4]; 1623 ± 13 nM in [5]; 1130 ± 61 nM in assay [6]. Moreover, the inhibitory constant (Ki) in assay [7] was 2070 ± 22 nM; in [8], 973 ± 63 nM; in assay [13], 71 ± 50 nM; in assay [9], 31 ± 2 nM; in [10], 74 ± 70 nM; in [11], more than 10000 nM. The “loss of potency toward MMP-10 compared with RXP470.1” value in assay [13] (relative to RXP470.1) is “less than ten times”. Moreover, the “loss of potency toward MMP-13 compared with RXP470.1” value in assay [10] (relative to RXP470.1) was “less than ten times”.
For the molecule `NC(=O)[C@H](CCC(=O)O)NC(=O)[C@H](CCC(=O)O)NC(=O)[C@H](Cc1cc(-c2ccc(-c3cccc(Cl)c3)cc2)no1)CP(=O)(O)c1ccc(Br)cc1` [RXP470.1, reference compound], the inhibition constant (Ki) in assay [1] was 0.26 nM; in assay [2], 6100 ± 100 nM; in [3], 170 ± 50 nM; in assay [4], more than 10000 nM; in assay [5], 518 ± 40 nM; in [6], 150 ± 21 nM. In addition, the Ki was 120 ± 40 nM in assay [7]; 52 ± 4 nM in [8]; 17 ± 20 nM in assay [13]; 80 ± 2 nM in assay [9]; 11 ± 10 nM in assay [10]; more than 10000 nM in assay [11]. Further, the “effect on atherosclerotic plaque” value in [14] is “reduces atherosclerotic plaque area and promotes a fibrous plaque phenotype”.
